A short description of this experiment: HCV replicon assay (luciferase reporter, ET cell line). It is filed as cell-based. Particulars: Hepatitis C virus, HCV replicon luciferase activity in ET cells. In a few lines:
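ET cells carry a stable luciferase-ubiquitin-neo/NS3-5B subgenomic HCV replicon with adaptive mutations. Compounds (0.1 nM to […], 0.5% DMSO) were added 24 h after plating, and luciferase was read 48-72 h later. EC50 came from 10-point 2-fold dilutions fitted to a Hill equation; TC50 was measured in parallel by WST-1.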

Turning to `CN(C)CCN(Cc1cccs1)C(=O)c1nc2c(C(F)(F)F)cc(-c3ccco3)cn2c1Cl` [Compound 319, 3-Chloro-6-furan-2-yl-8-trifluoromethyl-imidazo[1,2-a]pyridine-2-carboxylic Acid (2-dimethylamino-ethyl)-thiophen-2-ylmethyl-amide], the inhibition (in general, the change of the read-out against control, counted positive when it falls) at 10 µM was determined as 58.8%.
In turn, `CN1CCN(C(=O)c2nc3c(C(F)(F)F)cc(-c4ccco4)cn3c2Cl)C(c2ccccc2)C1` (stereo not shown) [Compound 320, (3-Chloro-6-furan-2-yl-8-trifluoromethyl-imidazo[1,2-a]pyridin-2-yl)-(4-methyl-2-phenyl-piperazin-1-yl)-methanone] gave an inhibition at 10 µM of 0.6%.
In turn, `O=C(NCCc1ccccc1)c1nc2c(C(F)(F)F)cc(-c3ccco3)cn2c1Cl` [Compound 321, 3-Chloro-6-furan-2-yl-8-trifluoromethyl-imidazo[1,2-a]pyridine-2-carboxylic Acid phenethyl-amide] gave an inhibition at 10 µM of 78.2%.
To `O=C(c1nc2c(C(F)(F)F)cc(-c3ccco3)cn2c1Cl)N1CCCC1c1ccccc1` (stereo not shown) [Compound 322, (3-Chloro-6-furan-2-yl-8-trifluoromethyl-imidazo[1,2-a]pyridin-2-yl)-(2-phenyl-pyrrolidin-1-yl)-methanone] belongs 78.7%; to `O=C(c1nc2c(C(F)(F)F)cc(-c3ccco3)cn2c1Cl)N1CCN(c2ccccc2)CC1` [Compound 323, (3-Chloro-6-furan-2-yl-8-trifluoromethyl-imidazo[1,2-a]pyridin-2-yl)-(4-phenyl-piperazin-1-yl)-methanone], 54.6%; to `O=C(c1nc2c(C(F)(F)F)cc(-c3ccco3)cn2c1Cl)N1CCN(Cc2ccccc2)CC1` [Compound 324, (4-Benzyl-piperazin-1-yl)-(3-chloro-6-furan-2-yl-8-trifluoromethyl-imidazo[1,2-a]pyridin-2-yl)-methanone], 34.6%.
`O=C(c1nc2c(C(F)(F)F)cc(-c3ccco3)cn2c1Cl)N1CCC(Cc2ccccc2)C1` (stereo not shown) [Compound 326, (3-Benzyl-pyrrolidin-1-yl)-(3-chloro-6-furan-2-yl-8-trifluoromethyl-imidazo[1,2-a]pyridin-2-yl)-methanone] displayed an inhibition at 10 µM of 66.7%.
Turning to `Cn1cncc1CNC(=O)c1nc2c(C(F)(F)F)cc(-c3ccco3)cn2c1Cl` [Compound 327, 3-Chloro-6-furan-2-yl-8-trifluoromethyl-imidazo[1,2-a]pyridine-2-carboxylic Acid (3-methyl-3H-imidazol-4-ylmethyl)-amide], 10 µM produced 95.4% inhibition.
For `O=C(c1nc2c(C(F)(F)F)cc(-c3ccco3)cn2c1Cl)N1CC(Cc2ccccc2)C1` [Compound 328, (3-Benzyl-azetidin-1-yl)-(3-chloro-6-furan-2-yl-8-trifluoromethyl-imidazo[1,2-a]pyridin-2-yl)-methanone], the inhibition at 10 µM came out at 72.5%.
Molecule `O=C(c1nc2c(C(F)(F)F)cc(-c3ccco3)cn2c1Cl)N1CCCC1c1ccc(F)cc1` (stereo not shown) [Compound 329, (3-Chloro-6-furan-2-yl-8-trifluoromethyl-imidazo[1,2-a]pyridin-2-yl)-[2-(4-fluoro-phenyl)-pyrrolidin-1-yl]-methanone] yielded an inhibition at 10 µM of 97.6%.
As to `CC1(C)CCCN1C(=O)c1nc2c(C(F)(F)F)cc(-c3ccoc3)cn2c1Cl` [Compound 330, (3-Chloro-6-furan-3-yl-8-trifluoromethyl-imidazo[1,2-a]pyridin-2-yl)-(2,2-dimethyl-pyrrolidin-1-yl)-methanone], the inhibition at 10 µM is 34.4%.
Consider `O=C(c1nc2c(C(F)(F)F)cc(-c3ccoc3)cn2c1Cl)N1CCCC1c1ccccn1` (stereo not shown) [Compound 331, (3-Chloro-6-furan-3-yl-8-trifluoromethyl-imidazo[1,2-a]pyridin-2-yl)-(2-pyridin-2-yl-pyrrolidin-1-yl)-methanone], for which the inhibition at 10 µM worked out at 53.3%.
As for `CN(Cc1cccs1)C(=O)c1nc2c(C(F)(F)F)cc(-c3ccoc3)cn2c1Cl` [Compound 332, 3-Chloro-6-furan-3-yl-8-trifluoromethyl-imidazo[1,2-a]pyridine-2-carboxylic Acid Methyl-thiophen-2-ylmethyl-amide], the inhibition at 10 µM is 37.7%.
The molecule `O=C(c1nc2c(C(F)(F)F)cc(-c3ccoc3)cn2c1Cl)N1CCC(c2ccccc2F)C1` (stereo not shown) [Compound 333, (3-Chloro-6-furan-3-yl-8-trifluoromethyl-imidazo[1,2-a]pyridin-2-yl)-[3-(2-fluoro-phenyl)-pyrrolidin-1-yl]-methanone] gave an inhibition at 10 µM of 98.9%.
To `O=C(c1nc2c(C(F)(F)F)cc(-c3ccoc3)cn2c1Cl)N1CCC(c2cccc(F)c2)C1` (stereo not shown) [Compound 334, (3-Chloro-6-furan-3-yl-8-trifluoromethyl-imidazo[1,2-a]pyridin-2-yl)-[3-(3-fluoro-phenyl)-pyrrolidin-1-yl]-methanone] belongs 96.1%.
Regarding `COc1ccc(C2CCN(C(=O)c3nc4c(C(F)(F)F)cc(-c5ccoc5)cn4c3Cl)C2)cc1` (stereo not shown) [Compound 335, (3-Chloro-6-furan-3-yl-8-trifluoromethyl-imidazo[1,2-a]pyridin-2-yl)-[3-(4-methoxy-phenyl)-pyrrolidin-1-yl]-methanone], the inhibition at 10 µM was determined as 76.3%.
For `O=C(c1nc2c(C(F)(F)F)cc(-c3ccoc3)cn2c1Cl)N1CCC(c2ccc(C(F)(F)F)cc2)C1` (stereo not shown) [Compound 336, (3-chloro-6-furan-3-yl-8-trifluoromethyl-imidazo[1,2-a]pyridin-2-yl)-[3-(4-trifluoromethyl-phenyl)-pyrrolidin-1-yl]-methanone], the inhibition at 10 µM stood at 73.2%.
`O=C(c1cn2cc(-c3ccoc3)cc(C(F)(F)F)c2n1)N1CCC(c2ccccc2F)C1` (stereo not shown) [Compound 337, [3-(2-Fluoro-phenyl)-pyrrolidin-1-yl]-(6-furan-3-yl-8-trifluoromethyl-imidazo[1,2-a]pyridin-2-yl)-methanone] showed an inhibition at 10 µM of 97.7%.
`COC(=O)c1ccccc1C1CCN(C(=O)c2nc3c(C(F)(F)F)cc(-c4ccoc4)cn3c2Cl)C1` (stereo not shown) [Compound 338, 2-[1-(3-Chloro-6-furan-3-yl-8-trifluoromethyl-imidazo[1,2-a]pyridine-2-carbonyl)-pyrrolidin-3-yl]-benzoic Acid Methyl Ester] showed an inhibition at 10 µM of 49.3%.
As to `COc1ccc(C2CCN(C(=O)c3nc4c(C(F)(F)F)cc(-c5ccoc5)cn4c3Cl)C2)cc1OC` (stereo not shown) [Compound 339, (3-Chloro-6-furan-3-yl-8-trifluoromethyl-imidazo[1,2-a]pyridin-2-yl)-[3-(3,4-dimethoxy-phenyl)-pyrrolidin-1-yl]-methanone], the inhibition at 10 µM worked out at 63%.
The value for `O=C(c1nc2c(C(F)(F)F)cc(-c3ccoc3)cn2c1Cl)N1CCC(N2CCCCC2)C1` (stereo not shown) [Compound 340, (3-Chloro-6-furan-3-yl-8-trifluoromethyl-imidazo[1,2-a]pyridin-2-yl)-(3-piperidin-1-yl-pyrrolidin-1-yl)-methanone] was 65.6%; that for `O=C(c1nc2c(C(F)(F)F)cc(-c3ccoc3)cn2c1Cl)N1CCC(c2ccccc2Cl)C1` (stereo not shown) [Compound 341, (3-Chloro-6-furan-3-yl-8-trifluoromethyl-imidazo[1,2-a]pyridin-2-yl)-[3-(2-chloro-phenyl)-pyrrolidin-1-yl]-methanone] was 83.6%.
`O=C(NCc1cccs1)c1cc2cc(-c3cn[nH]c3)cc(Cl)c2[nH]1` [Compound 347, 7-Chloro-5-(1H-pyrazol-4-yl)-1H-indole-2-carboxylic Acid (thiophen-2-ylmethyl)-amide] displayed an inhibition at 10 µM of 0.1%.
Regarding `O=C(NCc1cccs1)c1cc2cc(-c3ccoc3)cc(Cl)c2[nH]1` [Compound 348, 7-Chloro-5-furan-3-yl-1H-indole-2-carboxylic Acid (thiophen-2-ylmethyl)-amide], the inhibition at 10 µM is 0.1%.
Turning to `O=C(c1nc2c(C(F)(F)F)cc(-c3ccoc3)cc2[nH]1)N1CCC(c2ccc(F)cc2)C1` (stereo not shown) [Compound 351, [3-(4-Fluoro-phenyl)-pyrrolidin-1-yl]-(6-furan-3-yl-4-trifluoromethyl-1H-benzoimidazol-2-yl)-methanone], the inhibition at 10 µM came out at 52.1%.
`CCn1c(C(=O)N2CCC(c3ccc(F)cc3)C2)nc2c(C(F)(F)F)cc(-c3ccoc3)cc21` (stereo not shown) [Compound 352, (1-Ethyl-6-furan-3-yl-4-trifluoromethyl-1H-benzoimidazol-2-yl)-[3-(4-fluoro-phenyl)-pyrrolidin-1-yl]-methanone]: the inhibition at 10 µM is 49.8%.
Consider `CCn1c(C(=O)N2CCC(c3ccc(F)cc3)C2)nc2cc(-c3ccoc3)cc(C(F)(F)F)c21` (stereo not shown) [Compound 353, (1-Ethyl-5-furan-3-yl-7-trifluoromethyl-1H-benzoimidazol-2-yl)-[3-(4-fluoro-phenyl)-pyrrolidin-1-yl]-methanone], for which 10 µM produced 3.5% inhibition.
The molecule `CN(C)Cc1cccc(-c2cc(C(F)(F)F)c3nc(C(=O)N4CCC(c5ccc(F)cc5)C4)c(Cl)n3c2)c1` (stereo not shown) [Compound 354, [3-Chloro-6-(3-dimethylaminomethyl-phenyl)-8-trifluoromethyl-imidazo[1,2-a]pyridin-2-yl]-[3-(4-fluoro-phenyl)-pyrrolidin-1-yl]-methanone] showed an inhibition at 10 µM of 97.8%.
The value for `O=C(Nc1nc2c(C(F)(F)F)cc(-c3ccoc3)cn2c1Cl)c1cccs1` [Compound 356, Thiophene-2-carboxylic acid (3-chloro-6-furan-3-yl-8-trifluoromethyl-imidazo[1,2-a]pyridin-2-yl)-amide] was 32.5%; that for `C=C(C)c1cc(-c2ccccc2)cn2c(Cl)c(C(=O)NCc3cccs3)nc12` [Compound 358, 3-Chloro-8-isopropenyl-6-phenyl-imidazo [1,2-a]pyridine-2-carboxylic Acid (thiophen-2-ylmethyl)-amide] was 77.3%; that for `O=C(NCc1cccs1)c1nc2c(/C=C/c3ccccc3)cc(-c3ccccc3)cn2c1Cl` [Compound 359, 3-Chloro-6-phenyl-8-styryl-imidazo[1,2-a]pyridine-2-carboxylic Acid (thiophen-2-ylmethyl)-amide] was 100%.

The values are drawn from patent US20120121540A1 (priority 2007, published 2012).
